{
  "source": "patent US4459227A",
  "about": "“Para-hydroxyphenylhydrazines as in situ precursors of iminoquinones and quinones” (Duke University, priority 1981, dated 1984)",
  "key": {"[1]": {"test": "In vivo toxicity (LD50, survival, histology)", "set-up": "species or system mice; key to Histologic Findings: Acute Renal Tubular Necrosis / Histologic Findings: Pulmonary Congestion and Edema: 0: absent; +: mild; ++: moderate; +++: severe", "settings": "mouse, in vivo, ip, mice; for NOAEL: read-out: non-toxic up to (dose)", "protocol": "(§1) Female DBA/2J mice, 8 weeks old, were injected intraperitoneally with test compound solutions (X, XI, XII, XIII, […]) to give a final concentration of 30 mg/ml.\n(§2) In those groups receiving both test compound and cysteine, cysteine (1000 mg/kg) was given i.p. both 1 hour prior to and 2 or 3 hours after i.p. injection of the test compound. In Table 3 are the results of these experiments."}, "Female DBA/2J mice": {"test_system": "Female DBA/2J mice", "test": "In vivo toxicity (LD50, survival, histology)", "set-up": "key to Histologic Findings: Acute Renal Tubular Necrosis / Histologic Findings: Pulmonary Congestion and Edema: 0: absent; +: mild; ++: moderate; +++: severe", "settings": "for pulmonary congestion and edema (in words): Phe-CHP 600, Leu-CHP 1000, CHP-OEt 550 mg/kg", "protocol": "as §1, §2"}, "[2]": {"target": "T1, Leucine Aminopeptidase (LAP), type III-CP (Sus scrofa, UniProt P28839)", "T1 sequence (P28839 33-519)": "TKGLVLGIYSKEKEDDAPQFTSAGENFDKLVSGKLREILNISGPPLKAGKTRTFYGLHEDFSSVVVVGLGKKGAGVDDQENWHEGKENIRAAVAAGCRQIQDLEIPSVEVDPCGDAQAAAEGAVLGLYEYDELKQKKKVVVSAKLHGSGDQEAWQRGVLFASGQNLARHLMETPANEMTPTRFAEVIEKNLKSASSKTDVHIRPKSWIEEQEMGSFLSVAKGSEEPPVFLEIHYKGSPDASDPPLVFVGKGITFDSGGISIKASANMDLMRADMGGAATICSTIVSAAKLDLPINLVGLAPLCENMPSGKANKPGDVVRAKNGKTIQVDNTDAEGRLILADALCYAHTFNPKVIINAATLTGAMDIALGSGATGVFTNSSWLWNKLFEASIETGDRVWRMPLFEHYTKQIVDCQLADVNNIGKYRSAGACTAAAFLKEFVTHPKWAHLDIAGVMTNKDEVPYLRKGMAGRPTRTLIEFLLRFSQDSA", "test": "Leucine aminopeptidase in vitro hydrolysis (TLC)", "format": "biochemical", "settings": "1 mg/ml AA-CHP, pH 9.0, up to 12 hours", "protocol": "Leucine Aminopeptidase (LAP), type III-CP (Sigma) was stored at 0°-4° C. in 0.75M saturated […], 0.1M Tris and 0.005M MgCl2 (pH 8) and contained 210 U/ml. Prior to the hydrolysis experiment, LAP (50λ) was activated by incubating it in 0.025M MnCl2 (0.2 ml), 0.5M Tris.HCl buffer (pH 9.0, 0.2 ml) and demineralized and ultra-filtered H2 O (0.6 ml) for at least 2 hours at 37° C. To each sample test tube was added AA-CHP (1.5 mg) in 0.02M Tris HCl buffer (pH 9.0, 0.5 ml) so that the final concentration was 1 mg/ml AA-CHP. […] They were dried and sprayed with 0.2% Ninhydrin in EtOH and the color was developed at 85° C. for 5 minutes. The in vitro hydrolysis of Leu-CHP by LAP was also concomitantly studied by scanning spectrophotometry at different times after the start of incubation with the enzyme. A blank reference cell containing only enzyme and buffer was used."}, "mice": {"test_system": "mice", "protocol": "Cysteine hydrochloride was neutralized with 1N NaOH and diluted with PBS so that the final concentration was 30 mg/ml. In those groups that received only the test compounds, a single dose (up to 1000 mg/kg) was given i.p. and any toxic deaths were autopsied and hematoxylin and eosin sections obtained."}, "[3]": {"test": "Spectral study of rearrangement/reactions with nucleophiles, reducing and oxidizing agents", "format": "physicochemical", "protocol": "In order to characterize the products of hydrolysis of AA-CHP's, the hydrolysis of Leu-CHP by LAP was studied by absorption spectrophotometry. […] This was also true for the new maximum at 350 nm and for a second new \"maximum\" which appeared as a low, broad \"peak\" merging with 350 peak and centered at about 400 nm. However, by 22 minutes (not shown) the absorbance at 300 and 400 nm had diminished in intensity while the 350 maximum continued to increase, albeit at a slower rate. At pH 7.0 (FIG. 8B), the absorbance at 300 nm continued to slowly increase in intensity even up to 90 minutes after dissolving CHP-OEt (0.2 mg) in DMSO (0.02 ml) into 0.05M Phosphate buffer (3 ml). Furthermore, a second maximum at 350 nm developed but it remaind smaller in intensity than the 300 nm peak.\nTable 2 summarizes the results of several separate experiments involving the reactions of CHP-OEt, CHA-OEt, pIQ-OEt and pBQ (0.5-1.0 mM) with various nucleophiles (lysine, 3-MPA) reducing agents (NaBH4, 3-MPA) and oxidizing agents (NaIO4, O2) in ten-fold molar excess in Tris-HCl buffer (0.05M, pH 9.0).\nIn these studies, CHP-OEt, CHA-OEt and pBQ* were all pure compounds, thus, their absorption could be unequivocably assigned, pIQ-OEt was generated by the autoxidation of CHA-OEt in solution and its presence was noted by the appearance of one absorbance maximum at 400 nm and the development of a distinct yellow color to a previously clear solution of CHA-OEt. […] On the other hand, there was a dissimilarity between the spectra of CHP-OEt and CHA-OEt. CHA-OEt was oxidized by O2 or NaIO4 to the pIQ-OEt with a λmax =400 nm whereas NaIO4 had no effect on the rate or nature of spectral change that occurred when . . ."}, "[4]": {"test": "Stability in aqueous media", "format": "physicochemical"}, "[5]": {"settings": "compound added: 3-MPA, pH 8-9, ten-fold excess"}},
  "note": "Like-named read-outs stand apart in the source and are kept apart here.",
  "data": [
    {"smiles": "N[C@@H](Cc1ccccc1)C(=O)NN(CC(=O)O)c1ccc(O)cc1", "note": "[Phe-CHP]", "values": [
      {"measurement": "LD50", "setting": "[1]", "value": 400, "unit": "mg/kg"},
      {"measurement": "survivors/total", "setting": "Female DBA/2J mice; 400 mg/kg i.p.", "value": "3/5"},
      {"measurement": "survivors/total", "setting": "Female DBA/2J mice; 600 mg/kg i.p.", "value": "1/7"},
      {"measurement": "Histologic Findings: Acute Renal Tubular Necrosis", "setting": "Female DBA/2J mice; i.p., mice", "value": "+++"},
      {"measurement": "acute renal tubular necrosis (in words)", "setting": "Female DBA/2J mice; i.p., mice", "value": "severe acute renal tubular coagulative necrosis"},
      {"measurement": "relative toxicity", "setting": "Female DBA/2J mice; i.p., mice", "value": "most toxic"},
      {"measurement": "pulmonary congestion and edema (in words)", "setting": "Female DBA/2J mice; i.p.", "value": "minimal"},
      {"measurement": "cleavage/hydrolysis by LAP", "setting": "[2]", "value": "able to cleave"},
      {"measurement": "deaths/total", "setting": "mice; 600 mg/kg i.p., no cysteine", "value": "6 of 7"},
      {"measurement": "deaths/total", "setting": "mice; 600 mg/kg i.p., no cysteine, listed as Phe--CHP", "value": "6/7"},
      {"measurement": "deaths/total", "setting": "mice; Phe-CHP 600 mg/kg i.p. with cysteine 1000 mg/kg before and after", "value": "none"},
      {"measurement": "deaths/total", "setting": "mice; Phe-CHP 600 mg/kg i.p. with cysteine 1000 mg/kg before and after, listed as Phe--CHP", "value": "0/3"},
      {"measurement": "LD100", "setting": "mice; i.p., mice", "value": 600, "unit": "mg/kg"},
      {"measurement": "Time of Death", "setting": "mice; no cysteine, Leu-CHP 1000 mg/kg, Phe-CHP 600 mg/kg i.p.", "value": "36 to 44", "unit": "h"}
    ]},
    {"smiles": "N[C@@H](CCC(=O)O)C(=O)NN(CC(=O)O)c1ccc(O)cc1", "note": "[Glu-CHP]", "values": [
      {"measurement": "LD50", "setting": "[1]", "value": "> 1000", "unit": "mg/kg"},
      {"measurement": "NOAEL", "setting": "[1]", "value": "≥ 1000", "unit": "mg/kg"},
      {"measurement": "survivors/total", "setting": "Female DBA/2J mice; 600 mg/kg i.p.", "value": "5/5"},
      {"measurement": "survivors/total", "setting": "Female DBA/2J mice; 1000 mg/kg i.p.", "value": "6/6"},
      {"measurement": "cleavage/hydrolysis by LAP", "setting": "[2]", "value": "not"}
    ]},
    {"smiles": "C[C@H](N)C(=O)NN(CC(=O)O)c1ccc(O)cc1", "note": "[Ala-CHP]", "values": [
      {"measurement": "LD50", "setting": "[1]", "value": "> 1000", "unit": "mg/kg"},
      {"measurement": "NOAEL", "setting": "[1]", "value": "≥ 1000", "unit": "mg/kg"},
      {"measurement": "survivors/total", "setting": "Female DBA/2J mice; 600 mg/kg i.p.", "value": "5/5"},
      {"measurement": "survivors/total", "setting": "Female DBA/2J mice; 1000 mg/kg i.p.", "value": "6/6"},
      {"measurement": "cleavage/hydrolysis by LAP", "setting": "[2]", "value": "able to cleave"}
    ]},
    {"smiles": "CCOC(=O)CN(N)c1ccc(O)cc1", "note": "[CHP-OEt, α-N-(carboxymethyl ethyl ester)-p-hydroxyphenylhydrazine]", "values": [
      {"measurement": "absorption maximum", "setting": "[3]; 0.01M Tris buffer pH 9.0, FIG. 8A", "value": 300, "unit": "nm"},
      {"measurement": "second absorption maximum", "setting": "[3]; 0.05M Phosphate buffer pH 7.0, FIG. 8B", "value": 350, "unit": "nm"},
      {"measurement": "Final Maximum (nm)", "setting": "[3]; [5]", "value": 300, "unit": "nm"},
      {"measurement": "Final Maximum (nm)", "setting": "[3]; compound added: Lysine, pH 8-9, ten-fold excess", "value": 350, "unit": "nm"},
      {"measurement": "Final Maximum (nm), appears after NaBH4 has decomposed", "setting": "[3]; compound added: NaBH4, pH 8-9", "value": 350, "unit": "nm"},
      {"measurement": "Final Maximum (nm)", "setting": "[3]; compound added: NaBH4, pH 8-9, ten-fold excess", "value": 300, "unit": "nm"},
      {"measurement": "Final Maximum (nm)", "setting": "[3]; compound added: NaIO4, pH 8-9, ten-fold excess", "value": 350, "unit": "nm"},
      {"measurement": "Final Maximum (nm)", "setting": "[3]; compound added: none, pH 8-9", "value": 350, "unit": "nm"},
      {"measurement": "Initial Maximum (nm)", "setting": "[3]; pH 8-9", "value": 300, "unit": "nm"},
      {"measurement": "LD50", "setting": "[1]", "value": "400 to 550", "unit": "mg/kg"},
      {"measurement": "survivors/total", "setting": "Female DBA/2J mice; 400 mg/kg i.p.", "value": "3/3"},
      {"measurement": "deaths/total", "setting": "Female DBA/2J mice; 550 mg/kg i.p. in 7% DMSO", "value": "four of four"},
      {"measurement": "survivors/total", "setting": "Female DBA/2J mice; 550 mg/kg i.p. in 7% DMSO", "value": "0/4"},
      {"measurement": "time of death after treatment", "setting": "Female DBA/2J mice; 550 mg/kg i.p. in 7% DMSO", "value": "≤ 8", "unit": "h"},
      {"measurement": "Histologic Findings: Acute Renal Tubular Necrosis", "setting": "Female DBA/2J mice; i.p., mice", "value": 0},
      {"measurement": "Histologic Findings: Pulmonary Congestion and Edema", "setting": "Female DBA/2J mice; i.p., mice", "value": "+++"},
      {"measurement": "microscopic examination of the heart", "setting": "Female DBA/2J mice; i.p., mice", "value": "no evidence of a toxic insult"},
      {"measurement": "pulmonary congestion and edema (in words)", "setting": "Female DBA/2J mice; i.p.", "value": "moderate to severe"},
      {"measurement": "stability in aqueous media", "setting": "[4]", "value": "obvious instability"},
      {"measurement": "stability in aqueous media", "setting": "[4]; listed as IVa", "value": "decomposes rapidly"}
    ]},
    {"smiles": "CCOC(=O)CNc1ccc(O)cc1", "note": "[CHA-OEt, N(p-hydroxyphenyl)glycine ethyl ester, reference compound]", "values": [
      {"measurement": "Final Maximum (nm)", "setting": "[3]; [5]", "value": 300, "unit": "nm"},
      {"measurement": "Initial Maximum (nm)", "setting": "[3]; pH 8-9", "value": 300, "unit": "nm"}
    ]}
  ]
}
